# Measurements as given in ChEMBL document CHEMBL5344448, “Amide Alkaloids as Privileged Sources of Senomodulators for Therapeutic Purposes in Age-Related Diseases” (J Nat Prod, 2024).
# pIC50: −log10 of the molar value.
# How the values were obtained:
# [1] = Inhibition of rat liver microsome ACAT; assay type: microsomes
# [2] = tested on: WI-38; assay: Induction of senescence in human WI-38 cells; assay type: functional, cell-based
Structure (SMILES),pIC50 [1],pIC50 [2]
O=C(/C=C/C=C/CC/C=C/c1ccc2c(c1)OCO2)N1CCCCC1 [DEHYDROPIPERNOLINE],4.05,5.68
CC(C)CNC(=O)/C=C/C=C/CCCCCC/C=C/c1ccc2c(c1)OCO2 [GUINEENSINE],5.52,5.05
CCCCC/C=C/C=C/C(=O)NCC(C)C [PELLITORIN],–,6.17
O=C(/C=C/C=C/c1ccc2c(c1)OCO2)N1CCCCC1 [PIPERINE],–,5.06
COc1cc(/C=C/C(=O)N2CCC=CC2=O)cc(OC)c1OC [PIPLARTINE],–,5.10
CC(C)CNC(=O)/C=C/C=C/CCCC/C=C/c1ccc2c(c1)OCO2 [RETROFRACTAMIDE B],–,5.70
